# From the supplement of paper PMC11061612
# How the values were obtained:
# AZD7648 = compound: Cc1cc2ncnn2cc1Nc1ncc2c(n1)n(C1CCOCC1)c(=O)n2C [AZD7648]; details: max 10 µM
# How it was run: (§1)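 Cancer cell lines were plated in 1536-well plates in 7.5 μl of DMEM/F12 or RPMI with 10% FBS and kept 24 hours at 37°C and 5% CO2 before 72 hours of dosing, with final DMSO typically 0.2%. CellTiter-Glo 2.0 luminescence measured viability, scaled between blank-well and DMSO-well means. Dose responses were fitted to a two-parameter logistic curve with a non-linear mixed effects model. This fit gives the single-agent IC50.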
# 5-Fluorouracil = compound: O=c1[nH]cc(F)c(=O)[nH]1 [5-Fluorouracil]; details: max 20 µM
# How it was run: as §1
# AZD1390 = compound: CC(C)n1c(=O)n(C)c2cnc3cc(F)c(-c4ccc(OCCCN5CCCCC5)nc4)cc3c21 [AZD1390]; details: max 0.3 µM
# How it was run: as §1
# Dasatinib = compound: CC1=C(C(=CC=C1)Cl)NC(=O)C2=CN=C(S2)NC3=CC(=NC(=N3)C)N4CCN(CC4)CCO [Dasatinib]; details: max 2 µM
# How it was run: as §1
# AZD5153 = compound: COc1nnc2ccc(N3CCC(c4ccc(OCCN5CCN(C)C(=O)[C@H]5C)cc4)CC3)nn12 [AZD5153]; details: max 1 µM
# How it was run: as §1
# Prexasertib = compound: COc1cccc(OCCCN)c1-c1cc(Nc2cnc(C#N)cn2)n[nH]1 [Prexasertib]; details: max 1 µM
# How it was run: as §1
# AZD0156 = compound: CN(C)CCCOc1ccc(-c2ccc3ncc4c(c3c2)n(C2CCOCC2)c(=O)n4C)cn1 [AZD0156]; details: max 3 µM
# How it was run: as §1
# Gefitinib = compound: COc1cc2ncnc(Nc3ccc(F)c(Cl)c3)c2cc1OCCCN1CCOCC1 [Gefitinib]; details: max 10 µM
# How it was run: as §1
# AZD2811 = compound: CCN(CCO)CCCOc1ccc2c(Nc3cc(CC(=O)Nc4cccc(F)c4)[nH]n3)ncnc2c1 [AZD2811]; details: max 1 µM
# How it was run: as §1
# Selumetinib = compound: Cn1cnc2c(F)c(Nc3ccc(Br)cc3Cl)c(C(=O)NOCCO)cc21 [Selumetinib]; details: max 10 µM
# How it was run: as §1
# Lapatinib = compound: CS(=O)(=O)CCNCc1ccc(-c2ccc3ncnc(Nc4ccc(OCc5cccc(F)c5)c(Cl)c4)c3c2)o1 [Lapatinib]; details: max 10 µM
# How it was run: as §1
# Trametinib = compound: CC(=O)Nc1cccc(-n2c(=O)n(C3CC3)c(=O)c3c(Nc4ccc(I)cc4F)n(C)c(=O)c(C)c32)c1 [Trametinib]; details: max 1 µM
# How it was run: as §1
# Carboplatin = compound: C1CC(C1)(C(=O)[O-])C(=O)[O-].N.N.[Pt+2] [Carboplatin]; details: max 10 µM
# How it was run: as §1
# AZD1775 = compound: C=CCn1c(=O)c2cnc(Nc3ccc(N4CCN(C)CC4)cc3)nc2n1-c1cccc(C(C)(C)O)n1 [AZD1775]; details: max 3 µM
# How it was run: as §1
# Gemcitabine = compound: Nc1ccn([C@@H]2O[C@H](CO)[C@@H](O)C2(F)F)c(=O)n1 [Gemcitabine]; details: max 0.3 µM
# How it was run: as §1
# AZD4320 = compound: CN(CC[C@H](CSC1=CC=CC=C1)NC2=C(C=C(C=C2)S(=O)(=O)NC(=O)C3=CC=C(C=C3)N4CCC(CC4)[C@H](C5=CC=CC=C5C6=CC=C(C=C6)Cl)O)S(=O)(=O)C(F)(F)F)CCO [AZD4320]; details: max 1 µM
# How it was run: as §1
# Doxorubicin = compound: COc1cccc2c1C(=O)c1c(O)c3c(c(O)c1C2=O)C[C@@](O)(C(=O)CO)C[C@@H]3O[C@H]1C[C@H](N)[C@H](O)[C@H](C)O1 [Doxorubicin]; details: max 1 µM
# How it was run: as §1
# AZD5363 = compound: C1CN(CCC1(C(=O)N[C@@H](CCO)C2=CC=C(C=C2)Cl)N)C3=NC=NC4=C3C=CN4 [AZD5363]; details: max 10 µM
# How it was run: as §1
# Alisertib = compound: COc1cc(Nc2ncc3c(n2)-c2ccc(Cl)cc2C(c2c(F)cccc2OC)=NC3)ccc1C(=O)O [Alisertib]; details: max 10 µM
# How it was run: as §1
# Crizotinib = compound: C[C@@H](Oc1cc(-c2cnn(C3CCNCC3)c2)cnc1N)c1c(Cl)ccc(F)c1Cl [Crizotinib]; details: max 10 µM
# How it was run: as §1
# AZD8186 = compound: C[C@@H](Nc1cc(F)cc(F)c1)c1cc(C(=O)N(C)C)cc2c(=O)cc(N3CCOCC3)oc12 [AZD8186]; details: max 10 µM
# How it was run: as §1
# Olaparib = compound: O=C(c1cc(Cc2n[nH]c(=O)c3ccccc23)ccc1F)N1CCN(C(=O)C2CC2)CC1 [Olaparib]; details: max 10 µM
# How it was run: as §1
# SN-38 = compound: CCc1c2c(nc3ccc(O)cc13)-c1cc3c(c(=O)n1C2)COC(=O)[C@]3(O)CC [SN-38]; details: max 0.3 µM
# How it was run: as §1
# MK-2206 = compound: NC1(c2ccc(-c3nc4ccn5c(=O)[nH]nc5c4cc3-c3ccccc3)cc2)CCC1 [MK-2206]; details: max 10 µM
# How it was run: as §1
# SG3199 = compound: CC1=CN2[C@@H](C1)C=NC3=CC(=C(C=C3C2=O)OC)OCCCCCOC4=C(C=C5C(=C4)N=C[C@@H]6CC(=CN6C5=O)C)OC [SG3199]; details: max 0.001 µM
# How it was run: as §1
# AZD5991 = compound: Cc1c2c(nn1C)CSCc1cc(n(C)n1)CSc1cc(c3ccccc3c1)OCCCc1c(C(=O)O)n(C)c3c-2c(Cl)ccc13 [AZD5991]; details: max 1 µM
# How it was run: as §1
# Savolitinib = compound: C[C@@H](c1ccc2nccn2c1)n1nnc2ncc(-c3cnn(C)c3)nc21 [Savolitinib]; details: max 1 µM
# How it was run: as §1
# Etoposide = compound: COc1cc([C@@H]2c3cc4c(cc3[C@@H](O[C@@H]3O[C@@H]5CO[C@@H](C)O[C@H]5[C@H](O)[C@H]3O)[C@H]3COC(=O)[C@H]23)OCO4)cc(OC)c1O [Etoposide]; details: max 10 µM
# How it was run: as §1
# Palbociclib = compound: CC(=O)c1c(C)c2cnc(Nc3ccc(N4CCNCC4)cn3)nc2n(C2CCCC2)c1=O [Palbociclib]; details: max 10 µM
# How it was run: as §1
# SRA737 = compound: N#Cc1cnc(Nc2cc(NC[C@H]3CNCCO3)c(C(F)(F)F)cn2)cn1 [SRA737]; details: max 10 µM
# How it was run: as §1
# Venetoclax = compound: CC1(C)CCC(CN2CCN(c3ccc(C(=O)NS(=O)(=O)c4ccc(NCC5CCOCC5)c([N+](=O)[O-])c4)c(Oc4cnc5[nH]ccc5c4)c3)CC2)=C(c2ccc(Cl)cc2)C1 [Venetoclax]; details: max 1 µM
# How it was run: as §1
# Taselisib = compound: Cc1nc(-c2cn3c(n2)-c2ccc(-c4cnn(C(C)(C)C(N)=O)c4)cc2OCC3)n(C(C)C)n1 [Taselisib]; details: max 10 µM
# How it was run: as §1
# [1] = compound: O=C(Nc1ccc2[nH]nc(-c3ccncc3)c2c1)[C@@H]1CCN(CC(=O)N2CCN(c3ccc(-c4ncccn4)cc3)CC2)C1; details: max 5 µM
# How it was run: as §1
# AZD6738 = compound: C[C@@H]1COCCN1C2=NC(=NC(=C2)C3(CC3)[S@](=N)(=O)C)C4=C5C=CNC5=NC=C4 [AZD6738]; details: max 10 µM
# How it was run: as §1
# Paclitaxel = compound: CC(=O)O[C@H]1C(=O)[C@@]2(C)[C@H]([C@H](OC(=O)c3ccccc3)[C@]3(O)C[C@H](OC(=O)[C@H](O)[C@@H](NC(=O)c4ccccc4)c4ccccc4)C(C)=C1C3(C)C)[C@]1(OC(C)=O)CO[C@@H]1C[C@@H]2O [Paclitaxel]; details: max 3 µM
# How it was run: as §1
Cell Line,"IC50, cell viability 72 h (AZD7648)","IC50, cell viability 72 h (5-Fluorouracil)","IC50, cell viability 72 h (AZD1390)","IC50, cell viability 72 h (Dasatinib)","IC50, cell viability 72 h (AZD5153)","IC50, cell viability 72 h (Prexasertib)","IC50, cell viability 72 h (AZD0156)","IC50, cell viability 72 h (Gefitinib)","IC50, cell viability 72 h (AZD2811)","IC50, cell viability 72 h (Selumetinib)","IC50, cell viability 72 h (Lapatinib)","IC50, cell viability 72 h (Trametinib)","IC50, cell viability 72 h (Carboplatin)","IC50, cell viability 72 h (AZD1775)","IC50, cell viability 72 h (Gemcitabine)","IC50, cell viability 72 h (AZD4320)","IC50, cell viability 72 h (Doxorubicin)","IC50, cell viability 72 h (AZD5363)","IC50, cell viability 72 h (Alisertib)","IC50, cell viability 72 h (Crizotinib)","IC50, cell viability 72 h (AZD8186)","IC50, cell viability 72 h (Olaparib)","IC50, cell viability 72 h (SN-38)","IC50, cell viability 72 h (MK-2206)","IC50, cell viability 72 h (SG3199)","IC50, cell viability 72 h (AZD5991)","IC50, cell viability 72 h (Savolitinib)","IC50, cell viability 72 h (Etoposide)","IC50, cell viability 72 h (Palbociclib)","IC50, cell viability 72 h (SRA737)","IC50, cell viability 72 h (Venetoclax)","IC50, cell viability 72 h (Taselisib)","IC50, cell viability 72 h [1]","IC50, cell viability 72 h (AZD6738)","IC50, cell viability 72 h (Paclitaxel)"
SK-OV-3 (Ovarian Carcinoma),> 10 µM,> 20 µM,> 0.3 µM,> 2 µM,> 1 µM,0.0355 µM,> 3 µM,> 10 µM,> 1 µM,> 10 µM,> 10 µM,> 1 µM,> 10 µM,2.45 µM,> 0.3 µM,> 1 µM,> 1 µM,> 10 µM,> 10 µM,> 10 µM,> 10 µM,> 10 µM,> 0.3 µM,> 10 µM,> 0.001 µM,> 1 µM,> 1 µM,> 10 µM,> 10 µM,> 10 µM,> 1 µM,2.68 µM,> 5 µM,> 10 µM,0.732 µM
SU-DHL-6 (B-Cell Non-Hodgkin's Lymphoma),> 10 µM,> 20 µM,> 0.3 µM,0.0178 µM,0.0489 µM,> 1 µM,2.97 µM,> 10 µM,> 1 µM,> 10 µM,4.98 µM,> 1 µM,> 10 µM,0.676 µM,0.0364 µM,0.107 µM,0.181 µM,0.301 µM,1.09 µM,2.84 µM,0.228 µM,> 10 µM,0.00804 µM,0.569 µM,> 0.001 µM,0.0326 µM,> 1 µM,1.26 µM,3.57 µM,> 10 µM,0.244 µM,0.0144 µM,> 5 µM,> 10 µM,0.00404 µM
SUP-T1 (T-Lymphoblastic Leukemia),> 10 µM,> 20 µM,> 0.3 µM,> 2 µM,0.117 µM,0.0218 µM,> 3 µM,> 10 µM,> 1 µM,> 10 µM,> 10 µM,> 1 µM,> 10 µM,0.272 µM,0.0167 µM,> 1 µM,0.145 µM,3.6 µM,1.59 µM,2.73 µM,> 10 µM,> 10 µM,0.00319 µM,7.71 µM,> 0.001 µM,> 1 µM,> 1 µM,0.805 µM,2.36 µM,7.67 µM,> 1 µM,1.73 µM,> 5 µM,3.28 µM,0.0136 µM
SW1116 (Colorectal Carcinoma),> 10 µM,> 20 µM,> 0.3 µM,> 2 µM,> 1 µM,0.824 µM,> 3 µM,> 10 µM,> 1 µM,> 10 µM,> 10 µM,0.242 µM,> 10 µM,> 3 µM,> 0.3 µM,> 1 µM,> 1 µM,> 10 µM,> 10 µM,> 10 µM,> 10 µM,> 10 µM,> 0.3 µM,> 10 µM,> 0.001 µM,> 1 µM,> 1 µM,> 10 µM,> 10 µM,> 10 µM,> 1 µM,> 10 µM,> 5 µM,> 10 µM,2.74 µM
